Data as given in paper PMC12621043, “Un-LOK-ing a New Approach for Conformational Selective Targeting of STK10 (LOK)” (ACS Medicinal Chemistry Letters, 2025).

Tests used:
MAPK13A = target: T1, MAPK13A (Homo sapiens, UniProt O15264); assay: DSF Tm panel; type: binding; conditions: 10 μM compound
T1 construct: purchased in-house DSF kinase panel (SGC-style construct names; the trailing letter is the construct ID)
T1 sequence (O15264 1-365): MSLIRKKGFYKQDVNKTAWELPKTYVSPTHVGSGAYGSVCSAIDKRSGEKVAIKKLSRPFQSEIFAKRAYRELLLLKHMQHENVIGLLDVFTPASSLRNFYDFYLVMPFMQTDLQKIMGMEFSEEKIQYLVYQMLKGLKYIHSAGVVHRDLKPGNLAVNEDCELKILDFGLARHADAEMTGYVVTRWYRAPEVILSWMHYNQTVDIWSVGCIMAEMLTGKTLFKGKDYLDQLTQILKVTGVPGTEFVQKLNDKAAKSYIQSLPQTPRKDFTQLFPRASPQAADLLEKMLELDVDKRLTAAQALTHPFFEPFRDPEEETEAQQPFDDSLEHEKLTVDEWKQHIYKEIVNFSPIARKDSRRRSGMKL

SLK = SLK (Homo sapiens, UniProt Q9H2G2); assay: NanoBRET target engagement assay; type: cell-based; design: has a greater impact on the full-length protein than on the kinase domains; host or cells: HEK293T (ATCC CRL-3216); conditions: HEK293T cells
Sequence of SLK (Q9H2G2 whole entry, the tested form may be a part): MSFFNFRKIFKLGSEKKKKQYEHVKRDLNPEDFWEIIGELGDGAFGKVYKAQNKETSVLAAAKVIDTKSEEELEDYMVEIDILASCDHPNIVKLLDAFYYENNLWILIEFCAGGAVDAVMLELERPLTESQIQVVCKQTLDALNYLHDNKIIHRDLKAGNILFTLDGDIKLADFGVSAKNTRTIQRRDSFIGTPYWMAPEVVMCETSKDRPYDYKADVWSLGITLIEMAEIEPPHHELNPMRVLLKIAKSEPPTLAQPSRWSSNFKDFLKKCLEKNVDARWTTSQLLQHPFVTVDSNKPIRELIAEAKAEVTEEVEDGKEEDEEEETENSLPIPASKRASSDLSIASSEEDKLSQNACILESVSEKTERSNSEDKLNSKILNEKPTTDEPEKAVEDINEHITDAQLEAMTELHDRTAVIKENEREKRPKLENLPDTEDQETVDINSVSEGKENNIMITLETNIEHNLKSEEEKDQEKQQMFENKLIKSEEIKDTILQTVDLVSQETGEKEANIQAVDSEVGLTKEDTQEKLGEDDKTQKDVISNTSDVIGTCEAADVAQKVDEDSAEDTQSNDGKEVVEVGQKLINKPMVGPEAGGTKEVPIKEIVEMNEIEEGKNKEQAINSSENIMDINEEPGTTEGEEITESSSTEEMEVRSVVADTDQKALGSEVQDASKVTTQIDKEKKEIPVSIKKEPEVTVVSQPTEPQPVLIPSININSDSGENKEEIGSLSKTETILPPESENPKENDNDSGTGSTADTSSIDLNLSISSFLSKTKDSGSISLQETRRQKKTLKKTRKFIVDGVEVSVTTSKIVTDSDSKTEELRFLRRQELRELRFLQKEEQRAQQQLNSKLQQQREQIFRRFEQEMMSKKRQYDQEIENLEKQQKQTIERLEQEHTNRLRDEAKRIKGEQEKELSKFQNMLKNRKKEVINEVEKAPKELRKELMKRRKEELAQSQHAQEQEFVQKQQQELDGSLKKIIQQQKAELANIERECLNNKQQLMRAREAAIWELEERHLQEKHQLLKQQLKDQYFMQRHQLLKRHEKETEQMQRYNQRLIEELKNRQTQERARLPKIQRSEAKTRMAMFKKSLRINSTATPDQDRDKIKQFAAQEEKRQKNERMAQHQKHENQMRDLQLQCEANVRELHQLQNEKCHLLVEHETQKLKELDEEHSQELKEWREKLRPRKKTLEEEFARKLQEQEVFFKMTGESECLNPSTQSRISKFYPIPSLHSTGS

CSNK1DA = target: T2, CSNK1DA (Homo sapiens, UniProt P48730); assay: DSF Tm panel; type: binding; conditions: 10 μM compound
T2 construct: purchased in-house DSF kinase panel (SGC-style construct names; the trailing letter is the construct ID)
T2 sequence (P48730 1-294): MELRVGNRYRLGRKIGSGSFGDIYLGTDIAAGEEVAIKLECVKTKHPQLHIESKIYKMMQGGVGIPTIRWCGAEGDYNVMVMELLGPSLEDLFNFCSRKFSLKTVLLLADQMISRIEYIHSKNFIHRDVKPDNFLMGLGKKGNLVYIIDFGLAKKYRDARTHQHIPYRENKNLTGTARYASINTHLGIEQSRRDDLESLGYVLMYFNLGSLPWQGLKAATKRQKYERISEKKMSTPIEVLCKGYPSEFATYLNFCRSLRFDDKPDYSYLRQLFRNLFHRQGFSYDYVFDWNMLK

ABL1 (ABL1A) = target: T3, ABL1 (ABL1A) (Homo sapiens, UniProt P00519); assay: DSF Tm panel; type: binding; conditions: 10 μM compound
T3 construct: purchased in-house DSF kinase panel (SGC-style construct names; the trailing letter is the construct ID)
T3 sequence (P00519 229-512): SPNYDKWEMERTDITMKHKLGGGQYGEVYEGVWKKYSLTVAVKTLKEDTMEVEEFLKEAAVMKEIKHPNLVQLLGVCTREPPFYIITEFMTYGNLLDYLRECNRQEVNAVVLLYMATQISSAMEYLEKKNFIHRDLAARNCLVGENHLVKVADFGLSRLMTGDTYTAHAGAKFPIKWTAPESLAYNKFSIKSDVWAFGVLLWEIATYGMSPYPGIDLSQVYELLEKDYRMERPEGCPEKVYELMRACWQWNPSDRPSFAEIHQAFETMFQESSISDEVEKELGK

PKMYT1A = target: T4, PKMYT1A (Homo sapiens, UniProt Q99640); assay: DSF Tm panel; type: binding; conditions: 10 μM compound
T4 construct: purchased in-house DSF kinase panel (SGC-style construct names; the trailing letter is the construct ID)
T4 sequence (Q99640 75-362): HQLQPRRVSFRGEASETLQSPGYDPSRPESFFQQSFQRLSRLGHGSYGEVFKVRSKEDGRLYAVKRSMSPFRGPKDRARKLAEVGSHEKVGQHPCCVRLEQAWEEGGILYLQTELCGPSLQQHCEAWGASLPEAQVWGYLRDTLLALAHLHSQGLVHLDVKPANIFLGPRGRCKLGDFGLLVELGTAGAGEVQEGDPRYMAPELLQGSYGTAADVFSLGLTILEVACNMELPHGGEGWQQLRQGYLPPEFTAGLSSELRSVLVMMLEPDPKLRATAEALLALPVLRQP

MST4A = target: T5, MST4A (Homo sapiens, UniProt Q9P289); assay: DSF Tm panel; type: binding; conditions: 10 μM compound
T5 construct: purchased in-house DSF kinase panel (SGC-style construct names; the trailing letter is the construct ID)
T5 sequence (Q9P289 1-300): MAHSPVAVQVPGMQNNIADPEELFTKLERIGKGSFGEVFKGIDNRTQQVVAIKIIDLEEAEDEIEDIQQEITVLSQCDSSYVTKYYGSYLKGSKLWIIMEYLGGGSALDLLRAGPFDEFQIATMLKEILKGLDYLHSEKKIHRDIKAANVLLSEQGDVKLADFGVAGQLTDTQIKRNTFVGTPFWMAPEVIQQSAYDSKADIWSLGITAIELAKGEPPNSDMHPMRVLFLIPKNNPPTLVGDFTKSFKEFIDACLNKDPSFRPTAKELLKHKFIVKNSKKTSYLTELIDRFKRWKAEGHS

AKT3A = target: T6, AKT3A (Homo sapiens, UniProt Q9Y243); assay: DSF Tm panel; type: binding; conditions: 10 μM compound
T6 construct: purchased in-house DSF kinase panel (SGC-style construct names; the trailing letter is the construct ID)
T6 sequence (Q9Y243 148-479): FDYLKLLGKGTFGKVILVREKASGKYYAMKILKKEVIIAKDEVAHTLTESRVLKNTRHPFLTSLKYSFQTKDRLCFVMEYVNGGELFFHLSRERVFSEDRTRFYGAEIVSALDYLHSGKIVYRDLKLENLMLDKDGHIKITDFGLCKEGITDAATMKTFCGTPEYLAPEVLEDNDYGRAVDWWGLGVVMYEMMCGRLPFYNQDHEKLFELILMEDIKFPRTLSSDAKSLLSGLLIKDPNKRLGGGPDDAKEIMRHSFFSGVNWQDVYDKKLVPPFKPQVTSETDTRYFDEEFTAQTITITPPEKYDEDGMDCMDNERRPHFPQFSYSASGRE

OSR1A = target: T7, OSR1A (Homo sapiens, UniProt O95747); assay: DSF Tm panel; type: binding; conditions: 10 μM compound
T7 construct: purchased in-house DSF kinase panel (SGC-style construct names; the trailing letter is the construct ID)
T7 sequence (O95747 17-291): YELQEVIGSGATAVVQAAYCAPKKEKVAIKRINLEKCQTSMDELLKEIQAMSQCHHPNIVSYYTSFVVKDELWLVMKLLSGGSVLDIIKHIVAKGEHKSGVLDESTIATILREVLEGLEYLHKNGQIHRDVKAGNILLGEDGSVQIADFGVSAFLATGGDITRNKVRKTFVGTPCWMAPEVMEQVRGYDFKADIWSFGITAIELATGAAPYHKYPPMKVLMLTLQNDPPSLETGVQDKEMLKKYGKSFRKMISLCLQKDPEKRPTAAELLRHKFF

VRK1A = target: T8, VRK1A (Homo sapiens, UniProt Q99986); assay: DSF Tm panel; type: binding; conditions: 10 μM compound
T8 construct: purchased in-house DSF kinase panel (SGC-style construct names; the trailing letter is the construct ID)
T8 sequence (Q99986 1-396): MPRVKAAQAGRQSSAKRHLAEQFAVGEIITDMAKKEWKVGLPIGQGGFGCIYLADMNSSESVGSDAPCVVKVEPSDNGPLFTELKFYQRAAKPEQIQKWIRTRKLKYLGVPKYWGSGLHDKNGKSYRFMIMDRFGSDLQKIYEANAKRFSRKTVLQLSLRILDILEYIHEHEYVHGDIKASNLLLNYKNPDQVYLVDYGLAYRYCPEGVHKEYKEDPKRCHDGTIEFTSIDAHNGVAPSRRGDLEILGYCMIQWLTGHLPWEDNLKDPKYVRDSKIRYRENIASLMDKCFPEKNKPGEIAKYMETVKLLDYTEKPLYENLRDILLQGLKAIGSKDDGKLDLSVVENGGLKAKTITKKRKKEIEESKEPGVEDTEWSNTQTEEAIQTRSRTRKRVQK

DYRK2A = target: T9, DYRK2A (Homo sapiens, UniProt Q92630); assay: DSF Tm panel; type: binding; conditions: 10 μM compound
T9 construct: purchased in-house DSF kinase panel (SGC-style construct names; the trailing letter is the construct ID)
T9 sequence (Q92630 1-601): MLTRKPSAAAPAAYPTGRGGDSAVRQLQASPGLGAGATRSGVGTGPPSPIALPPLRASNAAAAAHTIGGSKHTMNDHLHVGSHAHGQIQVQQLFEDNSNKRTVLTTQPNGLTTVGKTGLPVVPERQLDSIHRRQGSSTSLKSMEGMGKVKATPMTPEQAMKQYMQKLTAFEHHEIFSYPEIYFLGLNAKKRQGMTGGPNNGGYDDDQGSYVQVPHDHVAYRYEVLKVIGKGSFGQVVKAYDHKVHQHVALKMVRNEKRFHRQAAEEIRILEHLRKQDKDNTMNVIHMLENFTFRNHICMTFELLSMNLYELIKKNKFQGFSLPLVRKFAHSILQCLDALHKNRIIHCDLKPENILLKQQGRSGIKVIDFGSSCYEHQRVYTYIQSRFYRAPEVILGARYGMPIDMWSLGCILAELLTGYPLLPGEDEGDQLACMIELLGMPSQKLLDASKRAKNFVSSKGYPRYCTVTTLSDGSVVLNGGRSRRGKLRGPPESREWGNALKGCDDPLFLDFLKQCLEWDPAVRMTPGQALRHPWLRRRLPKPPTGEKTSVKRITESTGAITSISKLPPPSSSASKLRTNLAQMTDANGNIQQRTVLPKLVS

Row | ΔTm at 10 µM (MAPK13A) [°C] | EC50 (SLK) [µM] | ΔTm at 10 µM (CSNK1DA) [°C] | ΔTm at 10 µM (ABL1 (ABL1A)) [°C] | ΔTm at 10 µM (PKMYT1A) [°C] | ΔTm at 10 µM (MST4A) [°C] | ΔTm at 10 µM (AKT3A) [°C] | ΔTm at 10 µM (OSR1A) [°C] | ΔTm at 10 µM (VRK1A) [°C] | ΔTm at 10 µM (DYRK2A) [°C] | Structure (SMILES)
1 | 0.1 | > 50 | 0.7 | 1.2 | 0.6 | 1.3 | 0 | 0.5 | -0.4 | 3.7 | O=C(NCc1ccccc1)Nc1ccc2cc1OCCOCCNc1ccn3ncc-2c3n1 [compound 16]
2 | -0.3 | > 50 | -0.1 | 1.3 | -0.1 | 0.4 | 0.4 | 1.2 | 0 | 4.3 | C[C@H](NC(=O)Nc1ccc2cc1OCCOCCNc1ccn3ncc-2c3n1)c1ccccc1 [compound 34]
3 | -0.1 | > 50 | 0.2 | 1.5 | 0 | 0.3 | 0.2 | 1.2 | 0.3 | 3.1 | COc1cccc(CNC(=O)Nc2ccc3cc2OCCOCCNc2ccn4ncc-3c4n2)c1 [compound 30]
